For the molecule `COC(=O)c1sc(-c2ccccc2)cc1N` [methyl 3-amino-5-phenylthiophene-2-carboxylate], the melting point (as a rule, the temperature, or range, at which the solid turns liquid) was 147 °C.
To `O=Cc1ccc(N2CCCC2)cc1` [4-(1-pyrrolidinyl)benzaldehyde] belongs 84 °C.
`O=C(O)c1ccc(O)cc1` [4-Hydroxybenzoic acid] returned a melting point of 216 °C.
The result for `Clc1cc(Cl)cc(Cl)c1` [1,3,5-trichlorobenzene] reads 64 °C; that for `CC(C)(C)OC(=O)N[C@H](CO)C(=O)O` [N-boc-D-serine], 90 °C; that for `O=C(O)CCSCCC(=O)O` [3,3'-thiodipropionic acid], 131 °C.
The result for `O=Cc1ccc(F)c(B(O)O)c1` [2-fluoro-5-formylbenzeneboronic acid] reads 170 °C; that for `COc1ccc2c(C(=S)N(C)CC(=O)O)cccc2c1C(F)(F)F` [tolrestat], 164 °C.
To `COc1cccc(O)c1` [3-methoxyphenol] belongs -18 °C; to `O=[N+]([O-])c1ccc(C=NO)cc1` [Benzaldehyde, 4-nitro-, oxime], 130 °C.
Turning to `O=C1CCC2C3CCC(=O)C3C12` (centres undefined) [octahydrocyclobuta[1,2-a:3,4-a']dicyclopentene-1,6-dione], the melting point was 67 °C.
To `Cc1ccnc(NS(=O)(=O)c2ccc(N)cc2)n1` [sulfamerazine] belongs 235 °C.
To `O=Cc1ccc(CO)o1` [5-hydroxymethyl-2-furaldehyde] belongs 34 °C; to `O=C1CCCCCO1` [epsilon-caprolactone], -2 °C; to `CC(=O)Nc1ccc(/N=N/c2ccc(/N=N/c3ccc(/N=N/c4ccc(NC(C)=O)cc4)cc3)cc2)cc1`, 247 °C.
To `Nc1ccc(S(=O)(=O)c2ccc(N)cc2)cc1` [4,4'-diaminodiphenyl sulfone] belongs 177 °C; to `C=CCCCCCC` [1-octene], -102 °C; to `O=C(O)c1ccccc1C(=O)Nc1cccc2ccccc12` [2-(1-Naphthylcarbamoyl)benzoic acid], 203 °C.
Regarding `C=Cc1cccc(B(O)O)c1` [3-vinylbenzeneboronic acid], the melting point amounted to 128 °C.
To `CCOc1ccc([N+](=O)[O-])cc1Br` [2-bromo-4-nitrophenetole] belongs 55 °C; to `Clc1cc(Cl)c(Cl)cc1Cl` [1,2,4,5-Tetrachlorobenzene], 139 °C; to `Cc1ccc(S(=O)(=O)Cl)cc1[N+](=O)[O-]` [4-methyl-3-nitrobenzenesulfonyl chloride], 35 °C.
In the case of `O=[N+]([O-])c1cccc(O)c1` [3-nitrophenol], the melting point worked out at 97 °C.
To `CC(=O)c1cccc(C#N)c1` [3-acetylbenzonitrile] belongs 99 °C; to `Cc1ccccc1B(O)O` [2-methylbenzeneboronic acid], 163 °C.
To `CCc1cc(Br)ccc1NC(C)=O` [4'-bromo-2'-ethylacetanilide] belongs 143 °C.
Molecule `CCOC(=O)c1ccc(OC)c(OC)c1` [ethyl 3,4-dimethoxybenzoate] displayed a melting point of 44 °C.
To `Nc1cc(Br)ccc1Br` [2,5-dibromoaniline] belongs 54 °C; to `Nc1ncccc1OCc1ccccc1` [2-amino-3-benzyloxypyridine], 93 °C.
To `CCCCCCSc1nc[nH]n1` [3-n-hexylthio-1,2,4-triazole] belongs 67 °C; to `O=C1Nc2ccc(Cl)cc2C(c2ccccc2Cl)=NC1O` (centres undefined) [lorazepam], 166 °C.
To `NCCC(=O)O` [beta-alanine] belongs 200 °C; to `CC(=O)c1ccccc1C(=O)O` [2-acetylbenzoic acid], 117 °C.
`N#CCCCCCCCCC#N` [sebaconitrile] returned a melting point of 6 °C.

The record behind these values is the Bradley open melting point set (2014).
